Results on 24 compounds are retold here after publication PMC12482674 (Alzheimer's Research & Therapy, 2025).

Experiment [1] has as its target AD brain-derived tau seeds (Homo sapiens, UniProt P10636, C639S). The experiment can be described thus: biochemical. It counts as biochemical. The conditions noted are these: for percent inhibition (vehicle AUC 100% minus percent AUC of compound): 100 µM; for inhibition at 100 µM: read-out: percent inhibition (vehicle AUC 100% minus percent AUC of compound).
The target in another experiment is tau (Homo sapiens, UniProt P10636, C639S). The experiment can be described thus: Transmission electron microscopy of Tau-SAA end products. Type of experiment: biochemical. To be noted: SAA end products (total fraction) of 100 µM reactions.
Chain of tau (P10636 1-352 isoform P10636-2 C233S): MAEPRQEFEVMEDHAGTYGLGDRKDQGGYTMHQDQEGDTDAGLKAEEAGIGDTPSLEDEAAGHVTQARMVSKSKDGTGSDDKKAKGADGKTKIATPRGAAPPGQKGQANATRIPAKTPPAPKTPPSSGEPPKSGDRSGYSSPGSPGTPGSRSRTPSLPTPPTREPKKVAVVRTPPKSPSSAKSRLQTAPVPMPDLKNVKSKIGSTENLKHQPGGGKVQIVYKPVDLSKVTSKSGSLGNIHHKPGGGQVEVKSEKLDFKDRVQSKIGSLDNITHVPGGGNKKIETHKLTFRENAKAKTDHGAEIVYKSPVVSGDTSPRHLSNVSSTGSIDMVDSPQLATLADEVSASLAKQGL
For experiment [2] the following is noted: Phase III; cited from earlier work.
The next experiment deals with tau oligomers. To be noted: mouse models; cited from earlier work.
In another experiment the test system is 2N4R. The conditions noted are these: cited from earlier work.
The subject of a further experiment is hyperphosphorylated tau. The conditions noted are these: mouse, in vivo; cited from earlier work.
The conditions of experiment [3]: patients receiving the drug; cited from earlier work.
A further experiment relates to tau peptides. The conditions noted are these: cited from earlier work.

Counter-ions that a name gives are not always drawn.

Chain of AD brain-derived tau seeds (P10636 1-352 isoform P10636-2 C233S): as above

As for `Oc1cc(O)c2c(c1)O[C@H](c1ccc(O)c(O)c1)[C@@H](O)C2` [(+)-catechin], in experiment [1], the “percent inhibition (vehicle AUC 100% minus percent AUC of compound)” value was 89%. Regarding `CN(C)c1ccc2nc3ccc(N)cc3[s+]c2c1.[Cl-]` [Azure A, azure A], in experiment [1], the “maximum thioflavin fluorescence (ThT Max)” value is “approaching the baseline” and the “percent inhibition (vehicle AUC 100% minus percent AUC of compound)” value is given as above 95%. Take `Nc1c(/N=N/c2ccc(-c3ccc(/N=N/c4cc(S(=O)(=O)O)c5ccccc5c4N)cc3)cc2)cc(S(=O)(=O)O)c2ccccc12` [Congo Red, Congo red]: in experiment [1], the “maximum thioflavin fluorescence (ThT Max)” value is reported as “approaching the baseline” and the inhibition at 100 µM was above 95%. With `COc1cccc2c1C(=O)c1c(O)c3c(c(O)c1C2=O)C[C@@](O)(C(=O)CO)C[C@@H]3O[C@H]1C[C@H](N)[C@@H](O)[C@H](C)O1` [Epirubicin], in experiment [1], the IC50 stood at 6.6 µM and the inhibition at 100 µM was above 99%. Regarding `O=C(c1cc(O)c(O)c(O)c1)c1ccc(O)c(O)c1O` [Exifone], in experiment [1], 11.2 µM corresponded to half-maximal inhibition (IC50) and the inhibition at 100 µM is above 95%. As for `COc1ccc2c(c1)c(CC(=O)O)c(C)n2C(=O)c1ccc(Cl)cc1` [Indomethacin], the “aggregates seen by TEM” value on tau was “widespread amyloid-like aggregates”. Turning to `CN(C)c1ccc2c(c1)Sc1cc(N(C)C)ccc1N2.CS(=O)(=O)O.CS(=O)(=O)O` [LMTX], in experiment [2], the primary efficacy outcomes is “did not reach primary efficacy outcomes”. For `CN(C)c1ccc2nc3ccc(=[N+](C)C)cc-3sc2c1` [Methylene Blue], in experiment [1], the inhibition at 100 µM is above 99%. On the same count and under the same terms, under `O=S(=O)(O)c1cc(S(=O)(=O)O)c2c(/N=N/c3ccccc3)c(O)ccc2c1` [Orange-G] stands 39%. Consider `CO[C@H]1/C=C/O[C@@]2(C)Oc3c(C)c(O)c4c(O)c(c(/C=N/N5CCN(C)CC5)c(O)c4c3C2=O)NC(=O)/C(C)=C\C=C\[C@H](C)[C@H](O)[C@@H](C)[C@@H](O)[C@@H](C)[C@H](OC(C)=O)[C@@H]1C` [Rifampin], for which the “spread of tau oligomers and cognitive function” value in the experiment on tau oligomers is “limit the spread of tau oligomers and improve cognitive function”. Also, the “aggregates seen by TEM” value at tau is on record as “devoid of fibrillar amyloid structures”. With `CCN(CC)CCNC(=O)c1c(C)[nH]c(/C=C2\C(=O)Nc3ccc(F)cc32)c1C` [Sunitinib], the inhibition at 100 µM in experiment [1] came out at 98.6%. In addition, on tau, the “aggregates seen by TEM” value is “widespread amyloid-like aggregates”.

On to `Nc1ccc2nc3ccc(N)cc3[s+]c2c1` [Thionin, thionin], for which, in experiment [1], the “maximum thioflavin fluorescence (ThT Max)” value is recorded as “approaching the baseline” and the “percent inhibition (vehicle AUC 100% minus percent AUC of compound)” value is listed as “over 99%”. As to `Brc1cccc(-c2cc(-c3ccc4c(c3)OCO4)[nH]n2)c1` [anle138b], the “inhibition of spontaneous 2N4R aggregate formation” value in the experiment with 2N4R is on record as “inhibits the in vitro formation of spontaneous 2N4R aggregates”. In experiment [1], the inhibition at 100 µM is -25.9%. Besides, in the experiment on hyperphosphorylated tau, the “hyperphosphorylated tau burden and survival” value is “reduces hyperphosphorylated tau burden and prolongs survival”.

Regarding `CNc1ccc2nc3ccc(=[N+](C)C)cc-3sc2c1.[Cl-]` [azure B], the “percent inhibition (vehicle AUC 100% minus percent AUC of compound)” value in experiment [1] was above 95%. As to `CNc1ccc2nc3ccc(N)cc3[s+]c2c1` [azure C], the inhibition at 100 µM in experiment [1] was above 95%. With `O=c1cc(-c2ccccc2)oc2cc(O)c(O)c(O)c12` [baicalein], in experiment [1], the inhibition at 100 µM is above 95%.

On to `COc1cc(/C=C/C(=O)CC(=O)/C=C/c2ccc(O)c(OC)c2)ccc1O` [curcumin], for which, in experiment [3], the cognitive outcome was “improvements in attention, long-term retrieval, and visual memory”; the “tau and Aβ burden by PET ligand binding” value was “decreased tau and Aβ burden”. As for `C=CCc1ccc(O)c(-c2ccc(O)c(CC=C)c2)c1` [honokiol], in experiment [1], the inhibition at 100 µM was determined as 94%. In the case of `O=c1c(O)c(-c2cc(O)c(O)c(O)c2)oc2cc(O)cc(O)c12` [myricetin], the inhibition at 100 µM in experiment [1] is above 95%. For the compound `CCN(CC)CCCC(C)Nc1c2ccc(Cl)cc2nc2ccc(OC)cc12` (stereo not drawn) [quinacrine hydrochloride], in experiment [1], the “maximum thioflavin fluorescence (ThT Max)” value is on record as “reduced ThT Max across all dilutions” and the “time to threshold (TTT)” value is “only delay TTT at higher dilutions”. On to `O=C(/C=C/c1ccc(O)c(O)c1)O[C@H](Cc1ccc(O)c(O)c1)C(=O)O` [rosmarinic acid], for which the inhibition at 100 µM in experiment [1] is above 95%. As to `Cc1ccc(C(=O)c2cc(O)c(O)c([N+](=O)[O-])c2)cc1` [tolcapone], in experiment [1], the inhibition at 100 µM was 78%. For `CC[C@@]1(O)C(=O)OCc2c1cc1n(c2=O)Cc2cc3c(CN(C)C)c(O)ccc3nc2-1` [topotecan], the “inhibition of fibrillization of tau peptides” value in the experiment with tau peptides is recorded as “only mildly inhibited”. In addition, the inhibition at 100 µM in experiment [1] came to 92%.

Take `CC(=O)c1c(O)c(C)c(O)c2c1OC1=CC(=O)C(C(C)=O)C(=O)C12C` (stereo not drawn) [usnic acid]: in experiment [1], the inhibition at 100 µM was 21.5%.

A word on the inhibition: it is the relative decrease from the control value, in per cent. By IC50 is commonly meant the concentration that inhibits the measured activity by half.
